Data from US20110053770A1, “SUBSTITUTED AMINOTHIAZOLES AND THEIR USE AS FUNGICIDES” (BAYER CROPSCIENCE AG, priority 2009, published 2011).
Marks after values point to notes of the source that are not given here.

Assay: logP by HPLC on reversed-phase columns (C 18), EEC directive 79/831 Annex V.A8
Assay type: physicochemical
Settings: for log P (***) / log P (**): LC-MS; for log P (***): neutral range, pH 7.8, 0.001 molar aqueous ammonium bicarbonate and acetonitrile; for log P (*) / log P (**): acidic range; for log P (*): pH 2.3, 0.1% aqueous phosphoric acid and acetonitrile; for log P (**): pH 2.7, 0.1% aqueous formic acid and acetonitrile
Description: Calibration was carried out using unbranched alkan-2-ones (having from 3 to 16 carbon atoms) with known logP values (the logP values were determined by the retention times using linear interpolation between two successive alkanones).

| Compound | log P (***) | log P (*) | log P (**) |
| --- | --- | --- | --- |
| COc1ccc(-c2cccc(-c3csc(N=C4CCCCN4)n3)c2)cc1 [compound 68, 4-(4′-methoxybiphenyl-3-yl)-N-[(2E/Z)-piperidin-2-ylidene]-1,3-thiazole-2-amine] | 3.88 | 1.85 |  |
| Clc1ccccc1Cc1csc(N=C2CCCCN2)n1 [compound 69, 4-(2-chlorobenzyl)-N-[(2E/Z)-piperidin-2-ylidene]-1,3-thiazole-2-amine] |  | 1.39* |  |
| Clc1cccc(Cc2csc(N=C3CCCCN3)n2)c1 [compound 70, 4-(3-chlorobenzyl)-N-[(2E/Z)-piperidin-2-ylidene]-1,3-thiazole-2-amine] | 3.36 | 1.58 |  |
| Cc1cccc(-c2cccc(-c3csc(N=C4CCCCN4)n3)c2)c1 [compound 71, 4-(3′-methylbiphenyl-3-yl)-N-[(2E/Z)-piperidin-2-ylidene]-1,3-thiazole-2-amine] | 4.48 | 2.12 |  |
| c1sc(N=C2CCCCN2)nc1CC1CC1 [compound 72, 4-(cyclopropylmethyl)-N-[(2E/Z)-piperidin-2-ylidene]-1,3-thiazole-2-amine] | 2.73 | 1.07 |  |
| CC(c1ccccc1)c1csc(N=C2CCCCN2)n1 (stereo not drawn) [compound 73, 4-(1-phenylethyl)-N-[(2E/Z)-piperidin-2-ylidene]-1,3-thiazole-2-amine] | 3.27 | 1.51 |  |
| Clc1ccc(Oc2ccccc2-c2csc(N=C3CCCCN3)n2)cc1 [compound 74, 4-[2-(4-chlorophenoxy)phenyl]-N-[(2E/Z)-piperidin-2-ylidene]-1,3-thiazole-2-amine] |  | 2.03* |  |
| Fc1ccc(Oc2ccccc2-c2csc(N=C3CCCCN3)n2)cc1 [compound 75, 4-[2-(4-fluorophenoxy)phenyl]-N-[(2E/Z)-piperidin-2-ylidene]-1,3-thiazole-2-amine] |  | 1.87* |  |
| Fc1cccc(F)c1Oc1ccccc1-c1csc(N=C2CCCCN2)n1 [compound 76, 4-[2-(2,6-difluorophenoxy)phenyl]-N-[(2E/Z)-piperidin-2-ylidene]-1,3-thiazole-2-amine] | 3.78 | 1.8 |  |
| Fc1ccc(Oc2ccccc2-c2csc(N=C3CCCCN3)n2)c(F)c1F [compound 77, N-[(2E/Z)-piperidin-2-ylidene]-4-[2-(2,3,4-trifluorophenoxy)phenyl]-1,3-thiazole-2-amine] | 4.17 | 2.01 |  |
| Fc1ccc(Oc2ccccc2-c2csc(N=C3CCCCN3)n2)cc1F [compound 78, 4-[2-(3,4-difluorophenoxy)phenyl]-N-[(2E/Z)-piperidin-2-ylidene]-1,3-thiazole-2-amine] | 4.18 | 1.83 |  |
| Cc1ccc(Oc2ccccc2-c2csc(N=C3CCCCN3)n2)cc1 [compound 79, 4-[2-(4-methylphenoxy)phenyl]-N-[(2E/Z)-piperidin-2-ylidene]-1,3-thiazole-2-amine] | 4.51 | 2.17 |  |
| Fc1ccc(F)c(Oc2ccccc2-c2csc(N=C3CCCCN3)n2)c1 [compound 80, 4-[2-(2,5-difluorophenoxy)phenyl]-N-[(2E/Z)-piperidin-2-ylidene]-1,3-thiazole-2-amine] | 3.98 | 1.94 |  |
| c1ccc(Cc2ccccc2-c2csc(N=C3CCCCN3)n2)cc1 [compound 81, 4-(2-benzylphenyl)-N-[(2E/Z)-piperidin-2-ylidene]-1,3-thiazole-2-amine] | 2.02*** |  |  |
| Fc1cc(F)c(Oc2ccccc2-c2csc(N=C3CCCCN3)n2)c(F)c1 [compound 82, N-[(2E/Z)-piperidin-2-ylidene]-4-[2-(2,4,6-trifluorophenoxy)phenyl]-1,3-thiazole-2-amine] | 3.96 | 2.02 |  |
| Fc1cccc(Oc2ccccc2-c2csc(N=C3CCCCN3)n2)c1 [compound 83, 4-[2-(3-fluorophenoxy)phenyl]-N-[(2E/Z)-piperidin-2-ylidene]-1,3-thiazole-2-amine] |  | 1.95* |  |
| Brc1ccc(Oc2ccccc2-c2csc(N=C3CCCCN3)n2)cc1 [compound 84, 4-[2-(4-bromophenoxy)phenyl]-N-[(2E/Z)-piperidin-2-ylidene]-1,3-thiazole-2-amine] |  | 2.14* |  |
| Clc1cccc(Oc2ccccc2-c2csc(N=C3CCCCN3)n2)c1 [compound 85, 4-[2-(3-chlorophenoxy)phenyl]-N-[(2E/Z)-piperidin-2-ylidene]-1,3-thiazole-2-amine] |  | 2.16* |  |

| Compound | log P (***) | log P (*) | log P (**) |
| --- | --- | --- | --- |
| Brc1ccccc1Oc1ccccc1-c1csc(N=C2CCCCN2)n1 [compound 86, 4-[2-(2-bromophenoxy)phenyl]-N-[(2E/Z)-piperidin-2-ylidene]-1,3-thiazole-2-amine] | 4.38 | 2.06 |  |
| Brc1cccc(Oc2ccccc2-c2csc(N=C3CCCCN3)n2)c1 [compound 87, 4-[2-(3-bromophenoxy)phenyl]-N-[(2E/Z)-piperidin-2-ylidene]-1,3-thiazole-2-amine] | 4.71 | 2.19 |  |
| Fc1ccc(Cc2ccccc2-c2csc(N=C3CCCCN3)n2)c(F)c1 [compound 88, 4-[2-(2,4-difluorobenzyl)phenyl]-N-[(2E/Z)-piperidin-2-ylidene]-1,3-thiazole-2-amine] | 4.27 | 2.04 |  |
| Clc1cc(Cl)cc(Cc2ccccc2-c2csc(N=C3CCCCN3)n2)c1 [compound 89, 4-[2-(3,5-dichlorobenzyl)phenyl]-N-[(2E/Z)-piperidin-2-ylidene]-1,3-thiazole-2-amine] | 5.35 |  | 2.43 |
| Fc1ccc(Cc2ccccc2-c2csc(N=C3CCCCN3)n2)cc1 [compound 90, 4-[2-(4-fluorobenzyl)phenyl]-N-[(2E/Z)-piperidin-2-ylidene]-1,3-thiazole-2-amine] | 4.19 |  | 1.95 |
| Clc1cccc(Cl)c1Cc1ccccc1-c1csc(N=C2CCCCN2)n1 [compound 91, 4-[2-(2,6-dichlorobenzyl)phenyl]-N-[(2E/Z)-piperidin-2-ylidene]-1,3-thiazole-2-amine] | 4.36 |  | 2.16 |
| Clc1ccc(Cc2ccccc2-c2csc(N=C3CCCCN3)n2)cc1Cl [compound 92, 4-[2-(3,4-dichloro-benzyl)phenyl]-N-[(2E/Z)-piperidin-2-ylidene]-1,3-thiazole-2-amine] | 5.07 | 2.36 |  |
| Clc1ccc(Cc2ccccc2-c2csc(N=C3CCCCN3)n2)cc1 [compound 93, 4-[2-(4-chlorobenzyl)-phenyl]-N-[(2E/Z)-piperidin-2-ylidene]-1,3-thiazole-2-amine] | 4.7 |  | 2.17 |
| c1ccc(Cc2ccc(-c3csc(N=C4CCCCN4)n3)cc2)cc1 [compound 94, 4-(4-benzylphenyl)-N-[(2E/Z)-piperidin-2-ylidene]-1,3-thiazole-2-amine] | 4.28 |  | 2.07 |
| Cc1ccc(Oc2ccccc2-c2csc(N=C3CCCN3)n2)c(C)c1 [compound 95, 4-[2-(2,4-dimethylphenoxy)phenyl]-N-[(2E/Z)-pyrrolidin-2-ylidene]-1,3-thiazole-2-amine] | 2.48 |  | 2.52 |
| Clc1ccc(-c2csc(N=C3CCCN3)n2)cc1 [compound 96, 4-(4-chlorophenyl)-N-[(2E/Z)-pyrrolidin-2-ylidene]-1,3-thiazole-2-amine] |  |  | 1.57** |
| Fc1ccc(Oc2ccc(-c3csc(N=C4CCCN4)n3)cc2)c(F)c1 [compound 97, 4-[4-(2,4-difluorophenoxy)phenyl]-N-[(2E/Z)-pyrrolidin-2-ylidene]-1,3-thiazole-2-amine] | 3.59 | 2.03 |  |
| c1ccc(Oc2ccccc2-c2csc(N=C3CCCN3)n2)cc1 [compound 98, 4-(2-phenoxyphenyl)-N-[(2E/Z)-pyrrolidin-2-ylidene]-1,3-thiazole-2-amine] | 3.54 | 1.92 | 2.05 |
| Clc1ccc(Oc2ccccc2-c2csc(N=C3CCCN3)n2)c(Cl)c1 [compound 99, 4-[2-(2,4-dichlorophenoxy)phenyl]-N-[(2E/Z)-pyrrolidin-2-ylidene]-1,3-thiazole-2-amine] | 4.43 | 2.49 | 2.49 |
| CC(C)(C)c1cc(Oc2ccccc2-c2csc(N=C3CCCN3)n2)ccc1Cl [compound 101, 4-[2-(3-tert-butyl-4-chlorophenoxy)phenyl]-N-[(2E/Z)-pyrrolidin-2-ylidene]-1,3-thiazole-2-amine] | 5.53 | 3.09 | 3.09 |
| Fc1ccc(Oc2ccccc2-c2csc(N=C3CCCN3)n2)c(F)c1 [compound 102, 4-[2-(2,4-difluorophenoxy)phenyl]-N-[(2E/Z)-pyrrolidin-2-ylidene]-1,3-thiazole-2-amine] | 3.55 | 1.98 |  |
| Clc1ccc(-c2csc(N=C3CCCCN3)n2)cc1 [compound 103, 4-(4-chlorophenyl)-N-[(2E/Z)-piperidin-2-ylidene]-1,3-thiazole-2-amine] | 3.47 | 1.68 | 1.68 |
